This passage reports Kd results from paper PMC10279719 (Nature Communications, 2023).

The target in this assay is T1, CrkII^NSH3 (Homo sapiens, UniProt P46108).
T1 construct: CrkII^NSH3; UniProt P46108-1, residues 134–191; 8-His tag with TEV protease cleavage site (N); made in house; host or cells: E. coli C41 (DE3)
The assay is described as follows: SPR, PEAK PRM and tandem peptides binding to immobilised CrkII NSH3 domain. The conditions noted are these: peptide analyte over amine-coupled CrkII NSH3 (CM5); Biacore S200, HBS-TP pH 7.4, 20 °C; steady-state 1:1 fit; mean ± S.E.M. (N ≥ 3) or SD (N = 2); read-out: SPR KD, CrkII N-SH3. On the procedure:
SPR binding studies of PEAK PRM peptides to CrkII^NSH3 were performed using a Biacore S200 Instrument (Cytiva). Purified CrkII^NSH3 was diluted to 5 µg ml^−1 in 10 mM sodium acetate pH 4.0 and amine coupled at 25 °C to a Series S CM5 sensor chip, in HBS-N running buffer (20 mM HEPES pH 7.4, 150 mM NaCl) to a final immobilization level of 1100–1400 response units (RU), followed by surface deactivation using 1 M ethanolamine. A blank activation/deactivation was used for the reference surface. Peptide binding studies were performed at 20 °C in HBS-TP running buffer (20 mM HEPES pH 7.4, 150 mM NaCl, 1 mM TCEP, 0.005% (v/v) Tween-P20). […] Peptide stocks were further diluted to in running buffer to 10 or 20 µM and prepared as a 11-point concentration series (2-fold serial dilution, […] for PEAK PRM peptides, or 20 µM–20 nM for PEAK tandem motif peptides). Samples were injected in a multi-cycle run (flow rate 30 µl min^−1, contact time of 60 s, dissociation 120 s) without regeneration. Sensorgrams were double referenced, and steady-state binding data fitted using a 1:1 binding model using Biacore S200 Evaluation Software (Cytiva, v. 1.1).

The structures appear in SMILES notation.

T1 sequence (P46108 134-191): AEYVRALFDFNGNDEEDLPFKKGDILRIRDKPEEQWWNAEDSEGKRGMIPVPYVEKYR

For `CC[C@H](C)[C@H](NC(=O)[C@H](CCCCN)NC(=O)[C@H](CCCCN)NC(=O)[C@@H]1CCCN1C(=O)[C@H](CC(C)C)NC(=O)[C@@H]1CCCN1C(=O)[C@@H]1CCCN1C(=O)[C@@H]1CCCN1C(=O)[C@H](CC(C)C)NC(=O)[C@@H]1CCCN1C(C)=O)C(=O)N[C@@H](CC(C)C)C(=O)N[C@H](C(=O)N[C@@H](CCCNC(=N)N)C(=O)N[C@H](C(=O)N[C@@H](CCC(N)=O)C(=O)N[C@@H](CO)C(=O)N[C@@H](CC(C)C)C(=O)N1CCC[C@H]1C(=O)N[C@H](C(=O)N[C@@H](CCCNC(=N)N)C(=O)N[C@@H](CCCNC(=N)N)C(N)=O)[C@@H](C)O)[C@@H](C)O)[C@@H](C)O` (single isomer, unassigned) [PEAK3^tandem], the Kd came out at 600 ± 20 nM.
